We go through nine compounds from patent US10364256B2 (GlaxoSmithKline Intellectual Property Development Limited, priority 2015, dated 2019).

In general, EC50 refers to the concentration needed to bring the measured effect to its halfway point. What is called IC50 is the concentration that inhibits the measured activity by half. Lower therefore signals greater potency in that assay.

Like-named read-outs stand apart in the source and are kept apart here. Where only a bound is given, the exact number is not on record here.

Experiment [1] deals with NQO1 specific enzyme activity in BEAS-2B cells (marker for NRF2 activation). As to the kind of experiment: BEAS-2B NQO1 MTT Assay. The experiment is classed as cell-based. To be noted: compound incubated 48 hours, read-out: EC50 (NQO1 specific enzyme activity induction). The text has this:
BEAS-2B NQO1 MTT Assay NAD(P)H:quinone oxidoreductase 1 (NQO1), also called DT diaphorase, is a homodimeric FAD-containing enzyme that catalyzes obligatory NAD(P)H-dependent two-electron reductions of quinones and protects cells against the toxic and neoplastic effects of free radicals and reactive oxygen species arising from one-electron reductions. The transcription of NQO1 is finely regulated by NRF2, and thus NQO1 activity is a good marker for NRF2 activation. On day one, frozen BEAS-2B cells (ATCC) are thawed in a water bath, counted, and re-suspended at a concentration of 250,000 cells/mL. Fifty microliters of cells are plated in 384 well black clear-bottomed plates. Plates are incubated at 37° C., 5% CO2 overnight. On day two, plates are centrifuged and 50 nL of compound or controls are added to the cells. Plates are then incubated at 37° C., 5% CO2 for 48 hours. On day four, medium is aspirated from the plate and crude cell lysates are made by adding 13 uL of 1× Cell Signaling Technologies lysis buffer with 1 Complete, Mini, EDTA-free Protease Inhibitor Tablet (Roche) for each 10 mL of lysis buffer. After lysis plates are incubated for 20 minutes at room temperature. Two microliters of lysate are removed for use in Cell Titer Glo assay (Promega) and MTT cocktail is prepared (Prochaska et. al. 1998) for measurement of NQO1 activity. Fifty microliters of MTT cocktail is added to each well, plate is centrifuged, and analyzed on an Envision plate reader (Perkin Elmer) using Absorbance 570 nm label for 30 minutes. Product formation is measured kinetically and the pEC50 of NQO1 specific activity induction is calculated by plotting the change in absorbance (Delta OD/min) versus the log of compound concentration followed by 3-parameter fitting. pEC50 is the negative log of the EC50.

The target of experiment [2] is T1, Keap1 Kelch domain (321-609) / TAMRA-labeled 16mer NRF2 peptide (ETGE motif) (Homo sapiens, UniProt Q14145).
T1 construct: the Kelch domain (321-609) of Keap1 is used
T1 sequence (Q14145 321-609): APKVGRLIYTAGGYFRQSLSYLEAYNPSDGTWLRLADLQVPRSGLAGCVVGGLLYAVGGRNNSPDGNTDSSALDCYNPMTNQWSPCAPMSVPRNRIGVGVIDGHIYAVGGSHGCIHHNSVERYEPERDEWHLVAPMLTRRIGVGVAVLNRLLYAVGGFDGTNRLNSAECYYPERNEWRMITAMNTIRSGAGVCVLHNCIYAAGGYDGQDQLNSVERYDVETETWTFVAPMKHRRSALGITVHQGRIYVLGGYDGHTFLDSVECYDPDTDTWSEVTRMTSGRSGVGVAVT
Put plainly: NRF2-Keap1 FP Assay (Keap1 Kelch fluorescence polarization). The experiment is classed as binding. The following applies: 20 nM Keap1 (321-609), 8 nM Tamra labeled peptide. The text has this:
One model for the NRF2-Keap1 interaction is through two binding sites in the Neh2 domain on NRF2. The two sites are referred to as the DLG binding motif (latch domain, uM affinity) and the ETGE binding motif (hinge domain, nM affinity). The Keap1 protein consists of an N-terminal region (NTR), a broad complex, tramtrack, and brick a′ brac domain (BTB), an intervening region (IVR), a double glycine repeat domain (DGR or Kelch), and a C-terminal region. The DLG and ETGE motifs of NRF2's Neh2 domain bind to the Kelch domain of Keap1 at different affinities. In the Keap1 Kelch fluorescence polarization (FP) assay, a TAMRA-labeled 16mer peptide (AFFAQLQLDEETGEFL) containing the ETGE motif of NRF2 and the Kelch domain (321-609) of Keap1 is used. The assay determines if a compound interferes with the binding between Keap1 […] and the TAMRA-labeled peptide. Binding of TAMRA-labeled NRF2 peptide to Keap1 (321-609) results in a high FP signal. If a compound interferes with the binding between the peptide and the protein, it will cause the assay signal to decrease. Thus, assay signal is inversely proportional to binding inhibition.
100 nl of 100× compound dose response curves (serial 3-fold dilutions) in DMSO are stamped using an Echo liquid handling system (Labcyte) into 384-well low volume black assay plates (Greiner, #784076), with DMSO in columns 6 and 18. The top concentration of compound is located in columns 1 and 13. Keap1 (321-609) is diluted to 40 nM (2×) in 1× assay buffer (50 mM Tris, pH 8.0, 100 mM NaCl, 5 mM MgCl2, 1 mM DTT, 2 mM CHAPS, and 0.005% BSA) and 5 ul is added using a Multidrop Combi (Thermo Electron Corporation) equipped with a metal tip dispenser to all wells of the compound plate, except column 18. Column 18 receives only 5 ul of assay buffer. Immediately, 5 uL of 16 nM (2×) of Tamra labeled peptide (AFFAQLQLDEETGEFL, 21st Century Biochemicals) is added to all wells of the plate. The plates are spun at 500 rpm for 1 min, incubated for 1 hr at room temperature, and read on an Analyst GT (Molecular Devices) equipped with excitation (530/25 nm) and emission (580/10 nm) filters designed for Tamra probes. A 561 nm dichroic mirror is also used in the Analyst. The final assay concentrations of Keap1 (321-609) and Tamra labeled peptide are 20 nM and 8 nM, respectively. Fluorescence measurements, represented as mP, are used in the transformation of the data. Compound activity is calculated based on percent inhibition, normalized against controls in the assay (Control 1 contains the Tamra peptide and Keap1 (321-609) together (0% response) and control 2 contains the Tamra peptide alone (100% response)). Data analysis is handled using the software package Abase XE (Surrey, United Kingdom. The % inhibition values are calculated by the equation: 100−(100*((compound response−average control 2)/(average control 1−average control2))). For calculation of pIC50s, Abase XE uses a four parameter equation. pIC50 is the negative log of the IC50.
Background: In fluorescence polarisation assays a small probe gives low polarisation when free and higher when bound to something large.

In experiment [3] the target is T2, full length Keap1 protein / full length NRF2 protein (Homo sapiens, UniProt Q14145).
T2 construct: full length NRF2 protein and full length Keap1 protein (Keap1 exists a dimer) are used; His
T2 sequence (Q14145 whole entry): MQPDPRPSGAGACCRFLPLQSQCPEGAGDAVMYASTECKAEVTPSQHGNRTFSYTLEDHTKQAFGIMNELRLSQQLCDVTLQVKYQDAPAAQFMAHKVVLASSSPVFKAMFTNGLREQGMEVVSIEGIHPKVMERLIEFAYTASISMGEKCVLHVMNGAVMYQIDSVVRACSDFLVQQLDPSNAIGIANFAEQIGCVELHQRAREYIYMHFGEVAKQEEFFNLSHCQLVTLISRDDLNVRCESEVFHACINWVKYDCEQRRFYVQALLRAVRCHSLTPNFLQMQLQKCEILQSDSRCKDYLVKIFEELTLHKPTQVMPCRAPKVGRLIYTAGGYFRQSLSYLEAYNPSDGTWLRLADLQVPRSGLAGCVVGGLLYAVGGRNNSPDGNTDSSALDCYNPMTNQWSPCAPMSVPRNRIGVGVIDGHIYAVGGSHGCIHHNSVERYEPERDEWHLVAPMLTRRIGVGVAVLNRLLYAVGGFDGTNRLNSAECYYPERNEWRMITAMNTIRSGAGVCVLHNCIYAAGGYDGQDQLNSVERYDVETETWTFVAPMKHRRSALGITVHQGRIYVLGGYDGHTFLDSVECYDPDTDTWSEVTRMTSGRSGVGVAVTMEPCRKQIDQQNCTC
As to the kind of experiment: NRF2-Keap1 TR-FRET Low Protein Assay. To be noted: 1.25 nM Keap1 FlagHis and 2.5 nM biotin-NRF2 added. It is filed as binding. The text has this:
NRF2-Keap1 TR-FRET Low Protein Assay In the NRF2-Keap1 TR-FRET (time-resolved fluorescence resonance energy transfer) low protein assay, full length NRF2 protein and full length Keap1 protein (Keap1 exists a dimer) are used. The assay detects a compound's ability to displace the binding of Keap1 […] with biotinylated Avi-NRF2 protein. Biotin-NRF2 binds to streptavidin-europium (a component of the detection mix) and Keap1 […] is recognized by anti-Flag APC (allophycocyanin) antibody (also a component of the detection mix). If binding occurs between the two proteins, there will be an energy transfer from the Eu+3 (donor) at 615 nm to the APC (acceptor) at 665 nm. A potential NRF2 inhibitor will cause a reduction in the TR-FRET signal by interfering with the binding of Keap1 to NRF2. Ten nanoliters of 100× compound dose response curves (serial 3-fold dilutions) in DMSO are stamped using an Echo liquid handling system (Labcyte) into 384-well, low volume, black assay plates (Greiner, #784076), with DMSO in columns 6 and 18. An additional 90 nl DMSO is added to each well, to bring the total volume to 100 nl per well. The top concentration of compound is located in columns 1 and 13, with the serial dilutions going across the row. All reagents are diluted in assay buffer (50 mM Tris, pH 8.0, 5 mM MgCl2, 100 mM NaCl, 0.005% BSA, 1 mM DTT, and 2 mM CHAPS. The BSA, DTT, and CHAPS are added to the assay buffer on the day of assay. […] Wells in column 18 receive 5 ul of assay buffer instead. Plates are centrifuged at 500 rpm for 1 minute, covered with a plate lid, and incubated at 37° C. for 2.25 hours. Plates are then removed from the incubator and allowed to cool to RT for 15 minutes. Five microliters of 2.5 nM biotin-NRF2 protein is then added to all wells of the plates and the plates are spun at 500 rpm for 1 minute, followed by incubating at 4° C. for 1.25 hours. The plates are then allowed to warm to RT for 15 minutes, followed by the addition of 10 ul of detection mix (1 nM Streptavidin Eu+W1024 and 5 ug/ml mouse anti-DYKDDDDK IgG conjugated to SureLight APC antibody; both from Columbia Biosciences) to all wells. Plates are spun at 500 rpm for 1 minute, incubated for 1 hour at RT, and read on an Envision plate reader using a 320 nm excitation filter and 615 nm and 665 nm emission filters. […] Data analysis is handled using the software package Abase XE (Surrey, United Kingdom). […] For calculation of pIC50s, Abase XE uses a four parameter equation. pIC50 is the negative log of the IC50.
(In general: In TR-FRET formats the signal depends on donor and acceptor labels being close together.)

As to `C[C@H](Oc1cccc(-c2cccc(-n3ncc(C(=O)O)c3[C@@H]3C[C@H]3CCCO)c2)c1)C1CCCCC1` (racemic) [Example 102, 1-(3′-((S)-1-Cyclohexylethoxy)-[1,1′-biphenyl]-3-yl)-5-(trans-2-(3-hydroxypropyl)cyclopropyl)-1H-pyrazole-4-carboxylic Acid], the EC50 in experiment [1] (Homo sapiens) fell in the range of 100 to 1000 nM. Also, the concentration for half-maximal inhibition (IC50) in experiment [2] and in experiment [3] was 1000 to 10000 nM in each case.
Turning to `CC(Oc1cccc(-c2cc(O)cc(-n3ncc(C(=O)O)c3[C@H]3C[C@@H]3c3cn(C)nn3)c2)c1)C1CCCCC1` (mixture of isomers) [Example 194], the EC50 in experiment [1] (Homo sapiens) fell in the range of 100 to 1000 nM. The IC50 in experiment [2] lay within 100 to 1000 nM; in experiment [3], 10 to 100 nM.
As to `C[C@H](Oc1cccc(-c2cccc(-n3ncc(C(=O)O)c3[C@H]3C[C@@H]3c3c[nH]nn3)c2)c1)C1CCCCC1` [Example 100, 5-((1S,2S)-2-(1H-1,2,3-Triazol-4-yl)cyclopropyl)-1-(3′-((S)-1-cyclohexylethoxy)-[1,1′-biphenyl]-3-yl)-1H-pyrazole-4-carboxylic Acid], the EC50 in experiment [1] (Homo sapiens) is 100 to 1000 nM. Besides, the IC50 in experiment [2] lay in the range of 1000 to 10000 nM; in experiment [3], 100 to 1000 nM.
In the case of `C[C@H](Oc1cccc(-c2cccc(-n3ncc(C(=O)O)c3[C@@H]3C[C@H]3c3c[nH]nn3)c2)c1)C1CCCCC1` [Example 99, 5-((1R,2R)-2-(1H-1,2,3-Triazol-4-yl)cyclopropyl)-1-(3′-((S)-1-cyclohexylethoxy)-[1,1′-biphenyl]-3-yl)-1H-pyrazole-4-carboxylic Acid], the EC50 in experiment [1] (Homo sapiens) was 1 to 10 nM. The half-inhibitory concentration (IC50) in experiment [2] was 10 to 100 nM; in experiment [3] it was below 10 nM.
Take `Cn1cc([C@@H]2C[C@H]2c2c(C(=O)O)cnn2-c2cccc(-c3cccc(/C=C/C4CCCCC4)c3)c2)nn1` (racemic) [Example 113, rac-1-(3′-((E)-2-Cyclohexylvinyl)-[1,1′-biphenyl]-3-yl)-5-(trans-2-(1-methyl-1H-1,2,3-triazol-4-yl)cyclopropyl)-1H-pyrazole-4-carboxylic Acid]: the EC50 in experiment [1] (Homo sapiens) fell in the range of 10 to 100 nM. In addition, the IC50 in experiment [2] and in experiment [3] was 100 to 1000 nM in each case.
With `C[C@H](Oc1cccc(-c2cccc(-n3ncc(C(=O)O)c3[C@@H]3C[C@H]3c3cnn(C)c3)c2)c1)C1CCCCC1` (racemic) [Example 103, 1-(3′-((S)-1-cyclohexylethoxy)-[1,1′-biphenyl]-3-yl)-5-(trans-2-(1-methyl-1H-pyrazol-4-yl)cyclopropyl)-1H-pyrazole-4-carboxylic Acid], in experiment [1] (Homo sapiens), the EC50 fell in the range of 100 to 1000 nM. Also, the concentration for half-maximal inhibition (IC50) in experiment [2] and in experiment [3] was 1000 to 10000 nM throughout.
On to `C[C@H](Oc1cccc(-c2cccc(-n3ncc(C(=O)O)c3[C@@H]3C[C@H]3c3cn(C4CC4)nn3)c2)c1)C1CCCCC1` [Example 98, 1-(3′-((S)-1-Cyclohexylethoxy)-[1,1′-biphenyl]-3-yl)-5-((1R,2R)-2-(1-cyclopropyl-1H-1,2,3-triazol-4-yl)cyclopropyl)-1H-pyrazole-4-carboxylic acid], for which the EC50 in experiment [1] (Homo sapiens) lay within 1 to 10 nM. In addition, the figures for the half-maximal inhibitory concentration (IC50) in experiment [2] and in experiment [3] were 10 to 100 nM and below 10 nM, respectively.
With `C[C@H](Oc1cccc(-c2cccc(-n3ncc(C(=O)O)c3[C@@H]3C[C@H]3c3cn(C)nn3)c2)c1)C1CCCCC1` [Example 69, Barium 1-(3′-((S)-1-Cyclohexylethoxy)-[1,1′-biphenyl]-3-yl)-5-((1R,2R)-2-(1-methyl-1H-1,2,3-triazol-4-yl)cyclopropyl)-1H-pyrazole-4-carboxylate Hydroxide], in experiment [1], the EC50 was below 1 nM. Besides, the IC50 was 1 to 10 nM in experiment [2] and below 10 nM in experiment [3].
With `Cn1cc([C@@H]2C[C@H]2c2c(C(=O)O)cnn2-c2cccc(-c3cccc(S(=O)(=O)N4Cc5ccccc5OC(C)(C)C4)c3)c2)nn1` (racemic) [Example 141, 1-(3′-((2,2-Dimethyl-2,3-dihydrobenzo[f][1,4]oxazepin-4(5H)-yl)sulfonyl)-[1,1′-biphenyl]-3-yl)-5-((1,2-trans)-2-(1-methyl-1H-1,2,3-triazol-4-yl)cyclopropyl)-1H-pyrazole-4-carboxylic Acid], the 50% effective concentration (EC50) in experiment [1] (Homo sapiens) lay within 100 to 1000 nM. Moreover, the IC50 in experiment [2] and in experiment [3] was 10 to 100 nM in each case.
